The record followed here is patent US20050090498A1, “3-Quinolin-2(1h)-ylideneindolin-2-one derivative” (priority 2001, published 2005).

For orientation: IC50 means the point on the concentration scale where inhibition reaches its midpoint.

The experiment concerns Human umbilical vein endothelial cells (HUVEC), VEGF-stimulated. The experiment can be described thus: Test on the inhibition of VEGF-stimulated HUVEC growth ([3H]thymidine incorporation). The class given is cell-based. The note with it: human recombinant VEGF 10 ng/ml. The procedure:
Test method: (Cell culture) Human umbilical vein endothelial cells (HUVEC) were cultured using EGM-2 complete medium (Clonetics) which had been supplemented with additives (2% FBS, 0.4% FGF (fibroblast growth factor), 0.1% VEGF, 0.1% IGF-I (insulin like growth factor-I), 0.1% EGF (epidermal growth factor), 0.1% ascorbic acid, 0.1% GA-1000, 0.1% heparin and 0.04% hydrocortisone).
(Evaluation of compounds) HUVEC (10,000 cells/well) were inoculated into EGM-2 complete medium in a gelatin-coated 96 well plate (mfd. by IWAKI) and cultured overnight. After washing with a physiological phosphate buffer, the medium was exchanged with a low serum medium (Medium 199/0.1% FBS) and the culturing was continued for 24 hours. Each of the compounds to be evaluated was prepared as a 10 mM DMSO solution and diluted with the low serum medium. This was added to each well to a final concentration of from 0.001 to 10 μM. After 2 hours of the compound treatment, human recombinant VEGF (R & D Systems) was added to a final concentration of 10 ng/ml. After 18 hours, [^3H]thymidine (Amersham Pharmacia) was added in 5 μCi/well portions. After 4 hours, the reaction was terminated by adding 0.2% SDS in 50 μl/well portions, and the product was recovered on GF/C Unifilter (Packard). After adding 25 μl of Microscinti 20 (Packard), the radioactivity incorporated into the DNA trapped on the filter was measured using TopCount (Packard). The IC50 of the inhibitory activity of each compound was calculated as the 50% inhibition concentration (IC50 value) of each compound to be tested, by defining the incorporated amount of [^3H]thymidine at the time of VEGF addition as 100%, and its incorporated amount at the time of no addition of VEGF as 0%.
(Incorporation of labelled thymidine or its analogues reports DNA synthesis.)

`O=C1Nc2cc(F)ccc2C1=C1C=Cc2ccccc2N1` [Example 209]: the half-inhibitory concentration (IC50) came out at 18 nM. To `CNC(=O)c1ccc2c(c1)C=CC(=C1C(=O)Nc3ccccc31)N2` [Example 149] belongs 73 nM; to `CCOC(=O)c1cc2c(cc1F)C(=C1C=Cc3cc(OCCN4CCOCC4)ccc3N1)C(=O)N2` [Example 299], 27 nM; to `O=C1Nc2ccccc2C1=C1C=Cc2cc(OCCCCN3CCOCC3)ccc2N1` [Example 47], 170 nM. With `O=C1Nc2ccccc2C1=C1C=Cc2cc(OCCN3CCS(=O)(=O)CC3)ccc2N1` [Example 80] the figure was 100 nM; with `CC1=CC(=C2C(=O)Nc3ccccc32)Nc2ccccc21` [Example 38], 38 nM; with `O=C1Nc2ccccc2C1=C1C=Cc2c(cccc2OCCN2CCOCC2)N1` [Example 105], 220 nM. To `O=C1Nc2cc(C(F)(F)F)ccc2C1=C1C=Cc2cc(OCCN3CCOCC3)ccc2N1` [Example 296] belongs 47 nM; to `N#Cc1ccc2c(c1)NC(=O)C2=C1C=Cc2ccccc2N1` [Example 191], 70 nM. Take `O=C(CCc1ccc2c(c1)C=CC(=C1C(=O)Nc3ccccc31)N2)NOCC1CC1` [Example 144]: the IC50 is 93 nM. To `Cc1ccc2c(c1)C(=C1C=Cc3ccccc3N1)C(=O)N2` [Example 201] belongs 290 nM; to `CCOC(=O)C1CCN(CCOc2ccc3c(c2)C=CC(=C2C(=O)Nc4ccccc42)N3)CC1` [Example 79], 100 nM. On to `O=C1Nc2ccccc2C1=C1C=Cc2cc(C(=O)NCCN3CCOCC3)ccc2N1` [Example 145], for which the IC50 is 31 nM. To `O=C1Nc2ccc(Br)cc2C1=C1C=Cc2ccccc2N1` [Example 285] belongs 70 nM; to `CCN(CC)CCOc1ccc2c(c1)C(=C1C=Cc3ccccc3N1)C(=O)N2` [Example 286], 750 nM; to `O=C1Nc2ccccc2C1=C1C=Cc2cc(OCCN3CCCCC3=O)ccc2N1` [Example 59], 87 nM. Regarding `O=C1Nc2ccccc2C1=C1C=Cc2cc(OC(=O)c3ccccc3)ccc2N1` [Example 36], the IC50 came to 160 nM.

In the case of `CCOC(=O)c1ccc2c(c1)NC(=O)C2=C1C=Cc2cc(OCCN3CCOCC3)ccc2N1` [Example 294], the IC50 is 12 nM.

Regarding `CN1CCN(CCCc2ccc3c(c2)C=CC(=C2C(=O)Nc4ccccc42)N3)CC1` [Example 98], the IC50 was determined as 150 nM.

Turning to `O=C1Nc2ccccc2C1=C1C=C(CO)c2ccccc2N1` [Example 187], the IC50 amounted to 140 nM.

`O=C1Nc2ccc(Cl)cc2C1=C1C=Cc2ccccc2N1` [Example 283]: the concentration for half-maximal inhibition (IC50) was determined as 84 nM.

As for `CCOC(=O)c1cc2c(cc1Cl)C(=C1C=Cc3cc(OCCN4CCOCC4)ccc3N1)C(=O)N2` [Example 298], the IC50 was found to be 50 nM. With `O=C1Nc2ccc(Cl)cc2C1=C1C=Cc2cc(OCCN3CCOCC3)ccc2N1` [Example 293] the figure was 48 nM; with `COCCNCc1ccc2c(c1)C=CC(=C1C(=O)Nc3ccccc31)N2` [Example 112], 100 nM. With `O=C1Nc2ccccc2C1=C1C=Cc2cc(Br)ccc2N1` [Example 56] the figure was 110 nM; with `CN1CCC(N(C)CCOc2ccc3c(c2)C=CC(=C2C(=O)Nc4ccccc42)N3)CC1` [Example 87], 100 nM; with `COc1cc2c(cc1CCCN1CCOCC1)NC(=C1C(=O)Nc3ccccc31)C=C2` [Example 77], 160 nM. To `O=C1Nc2cc(Cl)ccc2C1=C1C=Cc2cc(OCCN3CCOCC3)ccc2N1` [Example 312] belongs 48 nM; to `O=C1Nc2ccccc2C1=C1C=Cc2cc(OCCN3CCN(CCO)CC3)ccc2N1` [Example 85], 110 nM. For the molecule `CCOC(=O)c1cc2c(cc1F)C(=C1C=Cc3ccccc3N1)C(=O)N2` [Example 204], the IC50 is 22 nM. Turning to `O=Cc1ccc2c(c1)NC(=O)C2=C1C=Cc2ccccc2N1` [Example 193], the 50% inhibitory concentration (IC50) was 870 nM. In the case of `COCCOc1ccc2c(c1)C=CC(=C1C(=O)Nc3ccccc31)N2` [Example 58], the IC50 came out at 34 nM.
